Test results from patent publication US8299214B2 (priority 2006, dated 2012).
Where two headings read alike, the source gives them in different places. Residues, ends and D or L forms follow the SMILES beside them. No end group written: not given here. *: point of attachment. Stearoyl = CCCCCCCCCCCCCCCCCC(=O)*

Legend:
[1] = tested on: hemagglutinin (immobilized H3N2); assay: Biacore binding of synthetic peptides to H3N2 immobilized on Sensor Chip CM5; design: species or system influenza virus type A A/Wuhan/359/95 (H3N2); conditions: for order of binding strength to hemagglutinin: Biacore; for relative value of resonance (amount of binding) with A-1 taken as 1: peptide concentration 200 μM
[2] = tested on: influenza virus A/Puerto Rico/8/34 strain (H1N1)
[3] = tested on: influenza virus A/Aichi/2/68 strain (H3N2)
[4] = target: binding of hemagglutinin (H3) to GM3; assay: ELISA inhibition of GM3-hemagglutinin interaction using GM3 cast membrane; design: species or system influenza virus
Experimental: Inhibition of the interaction between GM3 and hemagglutinin (HA) was evaluated by ELISA using the GM3 cast membrane (Kazuhiro Nagata and Hiroshi Handa, “Seibutsu Busshitsu Sogosayo no Real-time Kaiseki Jikkenho—BIACORE wo Chushin Ni (Real-time Analysis Experimental Procedures on Biological Substance Interaction—Focusing on BIOCORE), Springer-Verlag Inc., Tokyo, 1998)”). […] In addition, it has been reported from an evaluation by NMR that the binding constant between hemagglutinin and free sialyl lactose is in the order of mM (e.g. α (2, 3)-sialyllactose K0=3.2 mM). Therefore, the results presented in this Example were largely consistent with the inhibition constant of the peptides reported by Inoue. Moreover, the results presented in this Example are in the same order of magnitude as, or one order smaller than, the inhibition constant of A-1 or the binding constant obtained with sialyl lactose.

[5] = tested on: hemagglutinin (HA), ether extract of type A subtype H3 A/Wuhan/359/95 (H3N2); assay: Phage ELISA, binding of peptide-presenting phages to immobilized hemagglutinin (H3N2); design: species or system influenza virus type A A/Wuhan/359/95 (H3N2)
[6] = target: hemagglutinin (HA), ether extract of type A subtype H1 A/PR/8/34 (H1N1) (Influenza A virus, UniProt P03452)
[7] = influenza virus A/Puerto Rico/8/34 strain
[8] = influenza virus A/Aichi/2/68 strain
[9] = read-out: IC50(μM) H1, Table 4, MDCK cells, plaque assay, H1N1
[10] = read-out: IC50(μM) H3, Table 4, MDCK cells, plaque assay, H3N2

Chain of hemagglutinin (HA), ether extract of type A subtype H1 A/PR/8/34 (H1N1) (P03452 18-565): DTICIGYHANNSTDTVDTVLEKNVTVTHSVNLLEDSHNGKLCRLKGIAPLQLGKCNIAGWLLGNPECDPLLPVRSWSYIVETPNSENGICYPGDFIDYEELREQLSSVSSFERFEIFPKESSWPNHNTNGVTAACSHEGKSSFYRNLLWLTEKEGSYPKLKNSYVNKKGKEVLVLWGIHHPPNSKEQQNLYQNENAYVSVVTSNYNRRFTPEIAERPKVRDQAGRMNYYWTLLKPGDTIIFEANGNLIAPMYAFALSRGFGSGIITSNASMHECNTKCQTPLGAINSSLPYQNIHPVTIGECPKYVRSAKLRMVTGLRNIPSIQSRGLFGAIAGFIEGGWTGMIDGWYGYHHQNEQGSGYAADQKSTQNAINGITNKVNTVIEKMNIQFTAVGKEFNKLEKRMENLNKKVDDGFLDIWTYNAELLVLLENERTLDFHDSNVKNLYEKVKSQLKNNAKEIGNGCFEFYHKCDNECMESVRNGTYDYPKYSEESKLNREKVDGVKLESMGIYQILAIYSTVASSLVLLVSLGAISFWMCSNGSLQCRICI

Row | Compound | IC50 [2, 7] [µM] | IC50 [3, 8] [µM] | inhibition of H1N1 influenza virus infection (in words) ([2]; MDCK cells, plaque assay) | inhibition of H3N2 influenza virus infection (in words) ([3]; MDCK cells, plaque assay) | further results
1 | ARLPPTMVRPNGPQP-NH2 [e-1] |  |  |  |  | order of binding strength to hemagglutinin [1]: s-2>e-1>A-1>pVIII; relative value of resonance (amount of binding) with A-1 taken as 1 [1]: 1.2 fold
2 | CCCCCCCCCCCCCCCCCC(=O)N[C@@H](CCCNC(=N)N)C(=O)N[C@H](C(=O)N[C@@H](CCSC)C(=O)N[C@H](C(=O)N[C@@H](Cc1c[nH]cn1)C(=O)N1CCC[C@H]1C(=O)N[C@@H](CCCCN)C(N)=O)C(C)C)[C@@H](C)O [C18-s2(5-11), C18-RTMVHPK] (Stearoyl-RTMVHPK-NH2) | 11 | > 100 |  |  | 
3 | CCCCCCCCCCCCCCCCCC(=O)N[C@@H](C)C(=O)N[C@@H](CCCNC(=N)N)C(=O)N[C@@H](CC(C)C)C(=O)N[C@@H](C)C(N)=O [C18-s2(1-4)P4A, C18-ARLA] (Stearoyl-ARLA-NH2) | > 100 | > 100 |  |  | 
4 | CCCCCCCCCCCCCCCCCC(=O)N[C@@H](C)C(=O)N[C@@H](CCCNC(=N)N)C(N)=O [C18-s2(1-2), C18-AR] (Stearoyl-Ala-Arg-NH2) |  |  | unable to inhibit infection | unable to inhibit infection | IC50 [2, 9]: > 100 µM; IC50 [3, 10]: > 100 µM
5 | CCCCCCCCCCCCCCCCCC(=O)N[C@@H](C)C(=O)N[C@@H](CCCNC(=N)N)C(=O)N[C@@H](CC(C)C)C(=O)N1CCC[C@H]1C(N)=O [C18-s2(1-4), C18-ARLP] (Stearoyl-ARLP-NH2) | 0.9 | 21 | more strongly than C18-S2 peptide | as strongly as, or more strongly than, C18-S2 peptide | 
6 | AEGDDPAKAAFDSLQ-NH2 [pVIII, reference compound] |  |  |  |  | order of binding strength to hemagglutinin [1]: s-2>e-1>A-1>pVIII
7 | CCCCCCCCCCCCCCCCCC(=O)N[C@@H](C)C(=O)N[C@@H](CCCNC(=N)N)C(=O)N[C@@H](CC(C)C)C(=O)N1CCC[C@H]1C(=O)N[C@@H](CCCNC(=N)N)C(=O)N[C@H](C(=O)N[C@@H](CCSC)C(=O)N[C@H](C(=O)N[C@@H](Cc1c[nH]cn1)C(=O)N1CCC[C@H]1C(=O)N[C@@H](CCCCN)C(=O)N1CCC[C@H]1C(=O)N[C@@H](C)C(=O)N[C@@H](CCC(N)=O)C(=O)N1CCC[C@H]1C(N)=O)C(C)C)[C@@H](C)O [C18-s2, C18-ARLPRTMVHPKPAQP] (Stearoyl-ARLPRTMVHPKPAQP-NH2) | 10 | 8.2 |  |  | 
8 | CCCCCCCCCCCCCCCCCC(=O)N[C@@H](C)C(=O)N[C@@H](CCCNC(=N)N)C(=O)N[C@@H](CC(C)C)C(=O)N1CCC[C@H]1C(=O)N[C@@H](CCCNC(=N)N)C(N)=O [C18-s2(1-5), C18-ARLPR] (Stearoyl-ARLPR-NH2) |  |  | more strongly than C18-S2 peptide | as strongly as, or more strongly than, C18-S2 peptide | IC50 [2, 9]: 3.1 µM; IC50 ([2]; read-out: IC50(μM) H1, Table 5, MDCK cells, plaque assay, H1N1): 0.35 µM; IC50 [3, 10]: 3 µM; IC50 ([3]; read-out: IC50(μM) H3, Table 5, MDCK cells, plaque assay, H3N2): 1.55 µM
9 | CCCCCCCCCCCCCCCCCC(=O)N[C@@H](C)C(=O)N[C@@H](CCCNC(=N)N)C(=O)N[C@@H](CC(C)C)C(=O)N1CCC[C@H]1C(=O)N[C@@H](CCCNC(=N)N)C(=O)N[C@H](C(N)=O)[C@@H](C)O [C18-s2(1-6), C18-ARLPRT] (Stearoyl-ARLPRT-NH2) |  |  | more strongly than C18-S2 peptide | as strongly as, or more strongly than, C18-S2 peptide | IC50 [2, 9]: 3.5 µM; IC50 [3, 10]: 5 µM
10 | CCCCCCCCCCCCCCCCCC(=O)N[C@@H](CCCNC(=N)N)C(=O)N1CCC[C@H]1C(=O)N[C@@H](CC(C)C)C(=O)N[C@@H](CCCNC(=N)N)C(=O)N[C@@H](C)C(N)=O [C18-s2(r1-5), C18-RPLRA] (Stearoyl-RPLRA-NH2) | 0.55 | 0.94 | more strongly than C18-s2 (r1-8) | more strongly than C18-s2 (r1-8) | 
11 | CCCCCCCCCCCCCCCCCC(=O)N[C@@H](CC(C)C)C(=O)N1CCC[C@H]1C(=O)N[C@@H](CCCNC(=N)N)C(=O)N[C@H](C(=O)N[C@@H](CCSC)C(=O)N[C@H](C(N)=O)C(C)C)[C@@H](C)O [C18-s2(3-8), C18-LPRTMV] (Stearoyl-LPRTMV-NH2) | > 100 |  |  |  | 
12 | CCCCCCCCCCCCCCCCCC(=O)N1CCC[C@H]1C(=O)N[C@@H](CC(C)C)C(=O)N[C@@H](CCCNC(=N)N)C(=O)N[C@@H](C)C(N)=O [C18-s2(r1-4), C18-PLRA] (Stearoyl-PLRA-NH2) | 0.41 | 14 | more strongly than C18-s2 (r1-8) | more strongly than C18-s2 (r1-8) | 
13 | ARLSPTMVHPNGAQP [A-1, ARLSPTMVHPNGAQP-NH2, reference compound] |  |  |  |  | order of binding strength to hemagglutinin [1]: s-2>e-1>A-1>pVIII; IC50 [4]: 1900 µM
14 | CCCCCCCCCCCCCCCCCC(=O)N1CCC[C@H]1C(=O)N[C@@H](CCCNC(=N)N)C(=O)N[C@H](C(=O)N[C@@H](CCSC)C(=O)N[C@H](C(N)=O)C(C)C)[C@@H](C)O [C18-s2(4-8), C18-PRTMV] (Stearoyl-PRTMV-NH2) | > 100 |  |  |  | 
15 | CCCCCCCCCCCCCCCCCC(=O)N[C@@H](C)C(=O)N[C@@H](CCCNC(=N)N)C(=O)N[C@@H](CC(C)C)C(=O)N1CCC[C@H]1C(=O)N[C@@H](CCCNC(=N)N)C(=O)N[C@H](C(=O)N[C@@H](CCSC)C(N)=O)[C@@H](C)O [C18-s2(1-7), C18-ARLPRTM] (Stearoyl-ARLPRTM-NH2) |  |  | more strongly than C18-S2 peptide | as strongly as, or more strongly than, C18-S2 peptide | IC50 [2, 9]: 7.1 µM; IC50 [3, 10]: 9.1 µM
16 | CCCCCCCCCCCCCCCCCC(=O)N[C@H](C(=O)N[C@@H](Cc1c[nH]cn1)C(=O)N1CCC[C@H]1C(=O)N[C@@H](CCCCN)C(=O)N1CCC[C@H]1C(=O)N[C@@H](C)C(=O)N[C@@H](CCC(N)=O)C(=O)N1CCC[C@H]1C(N)=O)C(C)C [C18-s2(8-15), C18-VHPKPAQP] (Stearoyl-VHPKPAQP-NH2) | 59 | 10.5 |  |  | 
17 | CCCCCCCCCCCCCCCCCC(=O)N[C@@H](C)C(=O)N[C@@H](CCCNC(=N)N)C(=O)N[C@@H](CC(C)C)C(N)=O [C18-s2(1-3), C18-ARL] | > 100 | > 100 | unable to inhibit infection | unable to inhibit infection | 
18 | CCCCCCCCCCCCCCCCCC(=O)N[C@@H](CCCNC(=N)N)C(=O)N[C@@H](CC(C)C)C(=O)N1CCC[C@H]1C(=O)N[C@@H](CCCNC(=N)N)C(=O)N[C@H](C(=O)N[C@@H](CCSC)C(=O)N[C@H](C(N)=O)C(C)C)[C@@H](C)O [C18-s2(2-8), C18-RLPRTMV] (Stearoyl-RLPRTMV-NH2) |  |  | as strongly as, or more strongly than, C18-S2 peptide |  | IC50 [2, 9]: 9.2 µM; IC50 [3, 10]: > 100 µM
19 | CCCCCCCCCCCCCCCCCC(=O)N[C@@H](C)C(=O)N[C@@H](CCCNC(=N)N)C(=O)N[C@@H](CC(C)C)C(=O)N1CCC[C@H]1C(=O)N[C@@H](CCCNC(=N)N)C(=O)N[C@H](C(=O)N[C@@H](CCSC)C(=O)N[C@H](C(N)=O)C(C)C)[C@@H](C)O [C18-s2(1-8), C18-ARLPRTMV] (Stearoyl-ARLPRTMV-NH2) |  |  | more strongly than C18-S2 peptide | as strongly as, or more strongly than, C18-S2 peptide | IC50 [2, 9]: 2.4 µM; IC50 [3, 10]: 1.4 µM
20 | ARLPRTMVHPKPAQP-NH2 [s-2] |  |  |  |  | binding activity to hemagglutinin relative to A-1 (A-1 taken as 1) [5]: about 3 fold; order of binding strength to hemagglutinin [1]: s-2>e-1>A-1>pVIII; relative value of resonance (amount of binding) with A-1 taken as 1 [1]: 2.1 fold; binding activity to hemagglutinin relative to A-1 (A-1 taken as 1) [6]: about 3 fold
21 | CCCCCCCCCCCCCCCCCC(=O)N[C@H](C(=O)N[C@@H](CCSC)C(=O)N[C@H](C(=O)N[C@@H](CCCNC(=N)N)C(=O)N1CCC[C@H]1C(=O)N[C@@H](CC(C)C)C(=O)N[C@@H](CCCNC(=N)N)C(=O)N[C@@H](C)C(N)=O)[C@@H](C)O)C(C)C [C18-s2(r1-8), C18-VMTRPLRA] (Stearoyl-VMTRPLRA-NH2) | 93 | 226 |  |  | 
22 | CCCCCCCCCCCCCCCCCC(=O)N[C@@H](C)C(=O)N[C@@H](CCCNC(=N)N)C(=O)N[C@@H](CC(C)C)C(=O)N[C@@H](CO)C(=O)N1CCC[C@H]1C(=O)N[C@H](C(=O)N[C@@H](CCSC)C(=O)N[C@H](C(=O)N[C@@H](Cc1c[nH]cn1)C(=O)N1CCC[C@H]1C(=O)N[C@@H](CC(N)=O)C(=O)NCC(=O)N[C@@H](C)C(=O)N[C@@H](CCC(N)=O)C(=O)N1CCC[C@H]1C(N)=O)C(C)C)[C@@H](C)O [C18-A1, C18-ARLSPTMVHPNGAQP, reference compound] (Stearoyl-ARLSPTMVHPNGAQP-NH2) | 195 | 365 |  |  | 
